In one data set the test system is PNMT. Briefly: Isomer preference of normetanephrine as substrate for PNMT. It counts as biochemical, bovine. The following applies: vs dl-normetanephrine. Here is the method:
(§1) PNMT was partially purified from bovine adrenal medulla according to the method of Henry et al, supra. In accordance with that procedure, thirty-three grams of medullary tissue are dissected from 15 fresh bovine adrenals and homogenized in 280 ml of 1.19 percent KCl solution. The homogenate is centrifuged at 40,000 g for one hour and the supernatant is filtered and recentrifuged at 100,000 g for one hour. To 250 ml of the supernatant are added 5 ml of 0.05M sodium phosphate buffer, pH 7.5 and 44 gm of solid ammonium sulfate. Another 19.8 gm of ammonium sulfate per 100 ml are added. The supernatant is discarded and the precipitate resuspended in 100 ml of 55 percent saturated ammonium sulfate--0.0125M sodium phosphate. The solution is recentrifuged and for each 100 ml of supernatant, 17 gm of ammonium sulfate are added. After centrifugation, the precipitate is resuspended in 50 ml of 0.005M tris, pH 7.4, containing 0.1 mM dithiothreitol and dialyzed in four liters of the buffer with four changes in a 16 hour period. The dialyzed enzyme is then centrifuged at 40,000 g for 10 minutes and frozen in small aliquots.
1-Normetanephrine is the preferred isomer as a substrate for PNMT and yielded about 1.5 times the activity of dl-normetanephrine. Thus, 1-normetanephrine should be used for calibration.

Data set [1] concerns the target T1, phenylethanolamine-N-methyl transferase (Bos taurus, UniProt P10938).
T1 construct: PNMT was partially purified from bovine adrenal medulla; from tissue; host or cells: bovine adrenal medulla
T1 sequence (P10938 1-283): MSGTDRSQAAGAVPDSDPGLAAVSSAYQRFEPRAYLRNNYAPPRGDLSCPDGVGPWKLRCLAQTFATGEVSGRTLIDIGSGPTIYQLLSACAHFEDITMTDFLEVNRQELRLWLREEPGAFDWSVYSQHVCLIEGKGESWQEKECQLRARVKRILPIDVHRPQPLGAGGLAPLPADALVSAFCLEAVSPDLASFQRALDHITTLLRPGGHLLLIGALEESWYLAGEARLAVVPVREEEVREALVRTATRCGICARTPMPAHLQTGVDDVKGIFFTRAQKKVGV
Kind of data set: Substrate specificity: cross reactivities of catecholamines and congeners in the radioenzymatic assay for plasma normetanephrine. It counts as biochemical, bovine. The settings on record: for % / Counts per Minute, Sample: 500 pg of amine added; for %: sample counts; for Counts per Minute, Sample: without normetanephrine internal standard, metanephrine band after TLC; for Percentage Interference: 500 pg of amine in assay for plasma normetanephrine; for Counts per Minute, Normetanephrine Standard: 500 pg of amine plus 250 pg of normetanephrine; for Normetanephrine: apparent normetanephrine from 500 pg of amine, calculated using 250 pg in the formula. As to the method: as §1
Duplicate aliquots (20-50 microliters) of the processed specimens were transferred to disposable culture tubes (13×100 mm); 10 ul of deionized water was added to one and the same volume of normetanephrine standard solution (100 pm) was added to the other. Two tubes of 50 microliters of 0.001N NCl were used for blanks instead of plasma for each assay run. The enzymatic reaction was initiated by the addition of a mixture of 10 ul each of 0.5M tris-HCl with 12.5 mM EDTA (pH 10.0), diluted tritiated […] (SAM-H^3 at 1.25 microCurie) and phenylethanolamine-N-methyl transferase prepared as above. The pH of the incubation mixture was 9.2. The incubation was carried out for sixty minutes at 37° C. and terminated by cooling in an ice bath and the addition of 100 ul of 0.5M borate buffer (pH 10.0) containing 5 micromole of metanephrine to facilitate the location of chromotography bands.
Radioactive products were extracted into 3 ml of toluene isoamyl-alcohol mixture (3:2) by agitation on a vortex mixer. The organic layer was separated by centrifugation, transferred to another set of tubes after quick freezing of the aqueous layer in a dry ice acetone bath and subsequently washed by 50 microliter of 0.5M borate buffer (pH 10.0) with similar procedures. Then the organic layer was transferred to a 15 ml centrifuge tube and the N-methylated products were back-extracted to 130 microliter of 0.1N acetic acid. After centrifugation, the organic layer was aspirated off and 100 microliter of the acetic acid phase was spotted on a silica gel plate with a multiple spotter. Thin layer chromatography was carried out in the chamber using as a developing solvent a mixture of tertiary amyl-alcohol, methylamine (40%), benzene (6:3:2, total 73.5 ml) for ninety minutes, in accordance with the procedure of Peuler and Johnson, supra. Then the plate was dried immediately. The metanephrine spot was marked under ultraviolet light, scraped off with a knife and transferred to a plastic vial containing 1 ml of 1N NH4 OH. Ten mls of ScintiVerse (obtained from the Fisher Scientific Co.) was added and the vial was left to stand for at least one hour prior to counting in a liquid scintillation counter. The plasma normetanephrine concentration was calculated from the radioactivity according to the formula given above.
Assays were conducted as in Example I using the solvent system of that example but in which the sample contained 250 pg of normetanephrine and in which there was added to the incubation mixture in individual tubes 10 microliters of the respective reagent listed in Table II.

Data set [2] is classed as physicochemical. As to the method: Blood specimens were collected into commercial vactainer tubes containing 15 milligrams EDTA for 10 ml of blood and placed on ice immediately. After centrifugation at 4° C., exactly 1 ml of plasma was transferred to a 10 ml test tube and kept in the freezer at -20° C. until the assay was performed. In this condition, plasma normetanephrine is stable for at least 2 months.

The target in data set [3] is T1, phenylethanolamine-N-methyl transferase. Briefly: Radioenzymatic assay of octopamine in urine (counted as synephrine). Format: biochemical, bovine. Here is the method:
The procedure of Examples I and II can be repeated but with the addition of 100 pg of octopamine in place of the 100 pg of normetanephrine as an internal standard, and by the addition of 5 micromole of unlabeled synephrine in place of the 5 micromole of metanephrine to facilitate chromatography band location. The pH of the incubation mixture is 9.3. The solvent system used is chloroform-ethanol-methylamine (40%) 16:3:2. In this case, synephrine bands are scraped into the scintillation vial and their counts per minute determined to yield the amount of octopamine, as synephrine.
A linear relationship was shown when octopamine was added either to urine or to water at 3-500 pg. Similarly, a linear relation was observed when both the synephrine and dimethyloctopamine were counted together after thin layer chromatography. These findings indicate that methylation of synephrine is proportioned to the added amount of octopamine and therefore validates the measurement of octopamine with this assay. When the synephrine was recovered from thin layer chromatography, it yielded a lower blank and therefore increased sensitivity. […] An additional wash with borate buffer (pH 10) and the use of chloroform-ethanol-methylamine as developing solvents further reduced the blank to a mean value of 56±7 cpm (N=13). Two and one-half octopamine in urine yields about 120-140 cpm. […]

As for `COc1cc([C@@H](O)CN)ccc1O` [1-Normetanephrine], the “activity as substrate for PNMT relative to dl-normetanephrine” value with PNMT was “about 1.5 times”.

On to `NCCc1ccc(O)c(O)c1` [Dopamine, dopamine], for which, in data set [1], the “%” value was 1.3%; the “Counts per Minute, Sample” value is on record as 80 Counts per Minute; the “Percentage Interference” value is listed as 0%; the “Counts per Minute, Normetanephrine Standard” value came to 6130 Counts per Minute. Also, in data set [1], the “Normetanephrine” value is reported as 0 pg.

With `CNC[C@H](O)c1ccc(O)c(O)c1` [Epinephrine, epinephrine], in data set [1], the “%” value is recorded as 1.3%; the “Counts per Minute, Sample” value was found to be 80 Counts per Minute; the “Percentage Interference” value was determined as 0%; the “Counts per Minute, Normetanephrine Standard” value is recorded as 6124 Counts per Minute. In data set [1], the “Normetanephrine” value is reported as 0 pg.

Take `CNCC(O)c1ccc(O)c(OC)c1` (stereo not drawn) [Metanephrine, metanephrine]: in data set [1], the “%” value is on record as 2.9%; the “Counts per Minute, Sample” value is recorded as 180 Counts per Minute; the “Percentage Interference” value came out at 0.7%; the “Counts per Minute, Normetanephrine Standard” value stood at 6363 Counts per Minute. For the same compound, the “Normetanephrine” value in data set [1] is given as 3.8 pg.

On to `NC[C@H](O)c1ccc(O)c(O)c1` [Norepinephrine, norepinephrine], for which, in data set [1], the “%” value stood at 1.6%; the “Counts per Minute, Sample” value is reported as 101 Counts per Minute; the “Percentage Interference” value was 0.1%; the “Counts per Minute, Normetanephrine Standard” value worked out at 6020 Counts per Minute. The “Normetanephrine” value in data set [1] was 0.6 pg.

As for `COc1cc(C(O)CN)ccc1O` (stereo not drawn) [Normetanephrine, normetanephrine], the “plasma normetanephrine is stable” value in data set [2] is “at least 2 months”.

For the compound `NCC(O)c1ccc(O)cc1` (stereo not drawn) [Octopamine, octopamine], in data set [1], the “%” value is 11.8%; the “Counts per Minute, Sample” value is listed as 726 Counts per Minute; the “Percentage Interference” value is given as 4.9%; the “Counts per Minute, Normetanephrine Standard” value is 7261 Counts per Minute. The “Normetanephrine” value in data set [1] is 24.5 pg. For the same compound, the “counts yielded by octopamine in urine” value in data set [3] (One hundred pg of octopamine in urine) was 2,500-3,000 cpm. For the same compound, the “counts yielded by octopamine in urine” value in data set [3] (Two and one-half octopamine in urine) is listed as 120-140 cpm.

Take `CNCC(O)c1ccc(O)cc1` (stereo not drawn) [Synephrine, synephrine]: in data set [1], the “%” value was 4.2%; the “Counts per Minute, Sample” value is on record as 262 Counts per Minute; the “Percentage Interference” value came out at 1.5%; the “Counts per Minute, Normetanephrine Standard” value is 6160 Counts per Minute. For the same compound, the “Normetanephrine” value in data set [1] is 7.5 pg.

On to `NCCc1ccc(O)cc1` [Tyramine, tyramine], for which, in data set [1], the “%” value came out at 1.3%; the “Counts per Minute, Sample” value was 81 Counts per Minute; the “Percentage Interference” value turned out to be 0%; the “Counts per Minute, Normetanephrine Standard” value worked out at 6090 Counts per Minute. Also, in data set [1], the “Normetanephrine” value is recorded as 0 pg.

The values above are taken from US4591551A, “Radioenzymatic method for assaying normetanephrine and octopamine” (University of Southern California, priority 1984, dated 1986).
